Data taken from PubChem BioAssay (NCI).
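Cells were grown in 96-well plates and exposed to each compound for 48 hours at five concentrations; endpoints were interpolated linearly between bracketing concentrations, or set to the highest concentration if not reached. GI50 is the concentration that inhibits growth by half. TGI denotes the concentration required for complete inhibition of growth.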

Tests used:
Assay in all cases: DTP human tumour cell line panel, 48 h
786-0 renal = system: 786-0 renal
A498 renal = system: A498 renal
A549 NSCLC = system: A549 NSCLC
ACHN renal = system: ACHN renal
BT-549 breast = system: BT-549 breast
CAKI-1 renal = system: CAKI-1 renal
CCRF-CEM leukemia = system: CCRF-CEM leukemia
COLO 205 colon = system: COLO 205 colon
DU-145 prostate = system: DU-145 prostate
EKVX NSCLC = system: EKVX NSCLC
HCC-2998 colon = system: HCC-2998 colon
HCT-116 colon = system: HCT-116 colon
HCT-15 colon = system: HCT-15 colon
HL-60(TB) leukemia = system: HL-60(TB) leukemia
HOP-62 NSCLC = system: HOP-62 NSCLC
HOP-92 NSCLC = system: HOP-92 NSCLC
HS 578T breast = system: HS 578T breast
HT29 colon = system: HT29 colon
IGROV1 ovarian = system: IGROV1 ovarian
K-562 leukemia = system: K-562 leukemia
KM12 colon = system: KM12 colon
LOX IMVI melanoma = system: LOX IMVI melanoma
M14 melanoma = system: M14 melanoma
MALME-3M melanoma = system: MALME-3M melanoma
MCF7 breast = system: MCF7 breast
MDA-MB-231 breast = system: MDA-MB-231 breast
MDA-MB-435 = system: MDA-MB-435
MOLT-4 leukemia = system: MOLT-4 leukemia
NCI-H226 lung = system: NCI-H226 lung

`Cc1cccc2c3c(sc12)C(c1ccc(F)cc1)C(C#N)=C(/N=C/c1ccc(Cl)cc1)O3` (stereo not drawn) gave a GI50 (786-0 renal) of 601 nM, a TGI (786-0 renal) of 12.5 µM and a GI50 (A498 renal) of 10.6 µM. For the same molecule, the TGI (A498 renal) was 42 µM, the GI50 (A549 NSCLC) was 670 nM and the TGI (A549 NSCLC) was greater than 100 µM. The GI50 (ACHN renal) was 695 nM, the TGI (ACHN renal) was 15.5 µM and the GI50 (BT-549 breast) was 907 nM. For the same molecule, the TGI (BT-549 breast) was 3.56 µM, the GI50 (CAKI-1 renal) was 389 nM and the TGI (CAKI-1 renal) was 15.2 µM. It also gave a GI50 (CCRF-CEM leukemia) of 404 nM, a TGI (CCRF-CEM leukemia) greater than 37.3 µM and a GI50 (COLO 205 colon) of 648 nM. The TGI (COLO 205 colon) was 2510 nM, the GI50 (DU-145 prostate) was 485 nM and the TGI (DU-145 prostate) was 19.3 µM. The GI50 (EKVX NSCLC) was 1720 nM, the TGI (EKVX NSCLC) was 46.1 µM and the GI50 (HCC-2998 colon) was 414 nM. The TGI (HCC-2998 colon) was 2470 nM, the GI50 (HCT-116 colon) was 384 nM and the TGI (HCT-116 colon) was 6.3 µM. The GI50 (HCT-15 colon) was 366 nM, the TGI (HCT-15 colon) was 10.3 µM and the GI50 (HL-60(TB) leukemia) was 339 nM. For the same molecule, the TGI (HL-60(TB) leukemia) was 971 nM, the GI50 (HOP-62 NSCLC) was 552 nM and the TGI (HOP-62 NSCLC) was 15.1 µM. For the same molecule, the GI50 (HOP-92 NSCLC) was 2190 nM, the TGI (HOP-92 NSCLC) was 15.8 µM and the GI50 (HS 578T breast) was 426 nM. The TGI (HS 578T breast) was 10.3 µM, the GI50 (HT29 colon) was 532 nM and the TGI (HT29 colon) was 5.04 µM. The GI50 (IGROV1 ovarian) was 632 nM, the TGI (IGROV1 ovarian) was 19.2 µM and the GI50 (K-562 leukemia) was 310 nM. For the same molecule, the TGI (K-562 leukemia) was 14.2 µM, the GI50 (KM12 colon) was 417 nM and the TGI (KM12 colon) was 13.2 µM. It also gave a GI50 (LOX IMVI melanoma) of 555 nM, a TGI (LOX IMVI melanoma) of 6.3 µM and a GI50 (M14 melanoma) of 310 nM. For the same molecule, the TGI (M14 melanoma) was 8.38 µM, the GI50 (MALME-3M melanoma) was 720 nM and the TGI (MALME-3M melanoma) was 23.2 µM. It also gave a GI50 (MCF7 breast) of 322 nM, a TGI (MCF7 breast) of 14 µM and a GI50 (MDA-MB-231 breast) of 700 nM. It also gave a TGI (MDA-MB-231 breast) of 14.8 µM, a GI50 (MDA-MB-435) of 175 nM and a TGI (MDA-MB-435) of 373 nM. For the same molecule, the GI50 (MOLT-4 leukemia) was 476 nM, the TGI (MOLT-4 leukemia) was 14.2 µM and the GI50 (NCI-H226 lung) was 434 nM. For the same molecule, the TGI (NCI-H226 lung) was 2960 nM.
